Laboratory results reported in patent US20060018921A1, “Histone deacetylase inhibitors and cognitive applications” (priority 2004, published 2006).
“Also recorded” adds a separate entry of the source.

Assays:
ERK2 = experiment: P-ERK2 western blot of area CA1 after contextual fear conditioning; conditions: MK-801 300 μg/kg 1 h prior to training; SL327 100 mg/kg immediately after training
histone H3 (Lys14) [1] = experiment: Acetylation of histone H3 in area CA1 after contextual fear conditioning; conditions: injection of MK-801 1 h prior to or SL327 immediately after training
[2] = test system: histone H4 (Lys5/Lys8/Lys12/Lys16); experiment: Acetylation of histone H4 in area CA1 after contextual fear conditioning; conditions: injection of MK-801 1 h prior to or SL327 immediately after training
[3] = Contextual fear conditioning, freezing behavior; conditions: for spontaneous freezing behavior on re-exposure 24 h after mock training, no shock (FIG. 11D): sodium butyrate 1.2 g/kg vs saline; for spontaneous freezing behavior during mock training, no shock (FIG. 11C): sodium butyrate 1.2 g/kg, 3 min in training chamber
[4] = Novel object recognition task; type: in vivo, Sprague-Dawley rats
Experimental: The effect of the exemplary histone deacetylase inhibitor sodium butyrate (NaB) on the exemplary hippocampus-dependent long-term memory paradigm of novel object recognition was determined. In the novel object task, an animal's ability to discriminate between a familiar and a novel object is tested. Novel object recognition training is performed over 4 consecutive days. During each day, animals are placed individually into a small holding cage prior to introduction to the training arena (44 cm^2). The first day consists of habituating animals to the training arena for 10 min. During the second and third days, the training arena has 8 small Duplo® Blocks (Lego®, 2 each: yellow, blue, red, green) placed 2 cm from the edge of the arena. During days 2 and 3, animals are simultaneously habituated to the Duplo blocks and tested for color and arena-position biases. On day 4, 2 distinct novel objects made from Duplo blocks (approx. 10×5×5 cm) are placed in opposite corners of the arena, 2 cm from the walls. Animals are allowed to explore the objects for 10 min. During each session in the arena, movement of the animal will be tracked by an automated video-based system (Limelight) and the arena and Duplo blocks are thoroughly rinsed with 10% EtOH to remove any scent cues left by subjects. During the final training session on day 4, exploration time of each object is tracked. […] Novel object recognition is assessed by calculating preference indices ([TimeNovel−TimeFamilar]) after exposure of animals to one familiar, and one novel object. Animals received an injection of either saline or NaB 45 min before the training session on day 4.

[5] = test system: Schaffer-collateral synapses; experiment: Slice electrophysiology, basal synaptic transmission (baseline fEPSP, input/output, paired-pulse facilitation, tetanus depolarization); type: cell-based, Sprague-Dawley rats; conditions: sodium butyrate for 20 min vs vehicle
SMA-like mice = conditions: Chang et al. (2001), cited from earlier work
Passive avoidance task = type: in vivo, Sprague-Dawley rats
Experimental: The effect of the exemplary histone deacetylase inhibitor sodium butyrate (NaB) on the exemplary hippocampus-dependent long-term memory paradigm of passive avoidance was determined. In the passive avoidance task, animals associate a dark chamber with an aversive stimulus. In the passive avoidance task, animals are placed into the lighted side of a 2-chamber shuttle box (Med Associates). An open doorway in the middle of the shuttle box leads to a dark side. Animals are allowed to move into the dark side of the chamber, upon which time the door is closed and animals are allowed to explore the dark side for 5 sec prior to receiving a brief electric shock (2 sec, 0.5 mA). Animals are given an additional 5 sec of exploration time prior to removal from the shuttle box. Latency to enter the dark side of the shuttle box is recorded for all experimental animals during the training day. Passive avoidance memory is assessed by measuring latency to enter the dark side of the shuttle box, minus the latency to enter the dark side on the training day. Passive avoidance memory was only tested once from each animal to eliminate the effect of extinction. NaB (1.2 g/kg) was administered 45 min prior to passive avoidance training.

[6] = test system: survival motor neuron (SMN) protein; conditions: SMA lymphoid cell lines; Chang et al. (2001); cited from earlier work
histone H3 (Lys14) [7] = experiment: Acetylation of histone H3, acute hippocampal slices, area CA1; conditions: slices exposed to NaB for 40 min; data not shown
[8] = test system: histone H4 (Lys5/Lys8/Lys12/Lys16); experiment: Acetylation of histone H4, acute hippocampal slices, area CA1; conditions: slices exposed to NaB for 40 min; data not shown
[9] = NaB 45 min before the training session on day 4, vs saline
[10] = NaB 1.2 g/kg 45 min prior to training
[11] = sodium butyrate 1.2 g/kg 1 h prior to 1-shock contextual fear conditioning, vs saline
[12] = sodium butyrate 1.2 g/kg 1 h prior to 1-shock contextual fear conditioning, vs saline, listed as NaB

C[C@]12N[C@H](Cc3ccccc31)c1ccccc12 [MK-801]
increase in P-ERK2 in area CA1 1 h after fear conditioning (ERK2): blocked the increase in P-ERK2; also recorded: inhibited the increase in P-ERK2 | increase in acetylation of histone H3 in area CA1 1 h after fear conditioning (histone H3 (Lys14) [1]): inhibited the increase in H3 acetylation; also recorded: No change in H3 acetylation | histone H4 acetylation in area CA1 after fear conditioning [2]: no effect on histone H4 acetylation | freezing behavior 24 h after contextual fear conditioning (contextual fear memory) ([3]; MK-801 300 μg/kg 1 h prior to training, vs saline): blocked; also recorded: less freezing behavior than animals injected with saline

CCCC(=O)[O-].[Na+] [sodium butyrate]
novel object recognition (preference index) 1 day after training [4, 9]: performed significantly better than animals that received saline | novel object recognition (preference index) 7 days after training [4, 9]: performed significantly better than animals that received saline | novel object recognition (preference index) day 14 [4, 9]: A trend for enhanced performance | long-term novel object recognition memory ([4]; NaB 45 min prior to novel object training, vs saline): enhances long-term novel object recognition memory | input/output relationships [5]: No significant differences | paired-pulse facilitation [5]: unaffected | input/output relationships ([5]; listed as NaB): no significant affect on input/output relationships | paired-pulse facilitation ([5]; listed as NaB): no significant affect | expression of SMN protein in spinal cord motor neurons (SMA-like mice; SMA-like mice): increased expression of SMN protein in spinal cord motor neurons | symptoms (SMA-like mice; SMA-like mice): improved symptoms | birth rate of severe types of SMA-like mice (SMA-like mice; heterozygous knock-out transgenic SMA-like mice bred): decreased the birth rate of severe types of SMA-like mice | passive avoidance memory (latency to enter dark side) 1 day after training (Passive avoidance task; [10]): did not affect long-term passive avoidance memory | passive avoidance memory (latency to enter dark side) 7 days after training (Passive avoidance task; [10]): significant affects on passive avoidance memory | passive avoidance memory (latency to enter dark side) 14 days after training (Passive avoidance task; [10]): significant affects on passive avoidance memory | long-term passive avoidance memory (Passive avoidance task; NaB 45 min prior to passive avoidance training, vs saline): enhances long-term passive avoidance memory | amount of exon 7-containing SMN protein [6]: effective at increasing the amount of exon 7-containing survival motor neuron (SMN) protein | acetylation of histone H3 (histone H3 (Lys14) [7]): elevated | acetylation of histone H4 [8]: elevated | freezing behavior during training (FIG. 11A) [3, 11]: unaffected | freezing behavior during training (FIG. 11E, short-term memory study) [3, 11]: unaffected | freezing behavior on re-exposure to the training chamber 24 h after training (FIG. 11B) [3, 11]: significantly more freezing behavior than animals injected with saline | freezing behavior during training (FIG. 11A) [3, 12]: no affect on freezing behavior observed during training | freezing behavior during training (FIG. 11E, short-term memory study) [3, 12]: no significant differences were seen in freezing behavior | freezing behavior on re-exposure 1 h after training, short-term memory (FIG. 11F) [3, 12]: no effect on freezing behavior | spontaneous freezing behavior on re-exposure 24 h after mock training, no shock (FIG. 11D) [3]: no affect on spontaneous freezing behavior | spontaneous freezing behavior on re-exposure 24 h after mock training, no shock (FIG. 11D) ([3]; listed as NaB): no significant differences in the amount of freezing behavior | spontaneous freezing behavior during mock training, no shock (FIG. 11C) ([3]; vs saline): unaffected | spontaneous freezing behavior during mock training, no shock (FIG. 11C) ([3]; vs saline, listed as NaB): no acute effects on freezing behavior
